What all share (test): inhibition of tumour cell growth, NCI panel, 48 h
The subject of test [1] is NCI-H23 lung.
Test [2] deals with MDA-MB-435.
In test [3] the test system is CCRF-CEM leukemia.
The subject of test [4] is SNB-75 CNS.
In test [5] the test system is HS 578T breast.
The test system of test [6] is BT-549 breast.
Test [7] has as its system MOLT-4 leukemia.

Several values for one entry are separate records, joined by “and”; a condition that tells them apart may be missing. Equal values may be shown once.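 Values below derive from 48-hour exposures of cells grown in 96-well plates, with endpoints linearly interpolated between the two concentrations bracketing the appropriate inhibition level. GI50 = concentration required for 50% inhibition of growth. TGI: total growth inhibition.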

Turning to `Cc1c2c(nn1C)CSCc1cc(n(C)n1)CSc1cc(c3ccccc3c1)OCCCc1c(C(=O)O)n(C)c3c-2c(Cl)ccc13`, the GI50 in test [1] was 1.78 µM; in test [2] it was 2.45 µM; in test [3] it was 1.73 µM; in test [4], 4.35 µM; in test [5] it was 4.48 µM; in test [6], 2.52 µM. For the same compound, the GI50 in test [7] was 0.448 µM. Moreover, the TGI in test [1] amounted to 10.6 µM; in test [2], 14.3 µM; in test [3], 10.6 µM; in test [4], 18 µM; in test [5], 32.7 µM; in test [6] it was 11.2 µM. For the same compound, the TGI in test [7] was determined as 4.4 µM.
`COc1ccc(OC)c(-c2c(C#N)c(N)nc(N3CCOCC3)c2C#N)c1`: the GI50 in test [2] was > 100 µM; in test [3], > 100 µM; in test [4], 12.9 µM; in test [5], 87.4 µM; in test [6], > 100 µM; in test [7] it was > 100 µM. Further, the TGI in test [2] was > 100 µM; in test [3], > 100 µM; in test [4] it was 57.4 µM; in test [5] it was > 100 µM; in test [6], > 100 µM; in test [7] it was > 100 µM.
Regarding `Nc1ncnc2c1nnn2C1CCC(CP(=O)(O)O)C1` (stereo not drawn), the TGI in test [1], in test [2], in test [3], in test [4] and in test [7] was > 100 µM throughout.
On to `O=C1c2c(O)cccc2C(C2OC(CO)C(O)C(O)C2O)c2cc(CO)cc(O)c21` (stereo not drawn), for which the TGI in test [1], in test [2], in test [3], in test [4], in test [5] and in test [6] was > 100 µM throughout. Moreover, the TGI in test [7] is > 100 µM.
For `CCOc1cc2ncc(C#N)c(Nc3ccc(OCc4ccccn4)c(Cl)c3)c2cc1NC(=O)/C=C/CN(C)C`, the GI50 in test [1] is 2.63 µM and > 4.56 µM; in test [2] it was 0.902 µM and 0.77 µM; in test [3] it was 1.3 µM and 2.44 µM; in test [4] it was 0.915 µM and 0.362 µM; in test [5], 0.54 µM and 0.351 µM; in test [6] it was 1.97 µM and 0.921 µM. For the same compound, the GI50 in test [7] was 0.672 µM and 0.463 µM. Moreover, the TGI in test [1] was 22.2 µM and > 10 µM; in test [2], 2.52 µM and 5.37 µM; in test [3], 4.95 µM and > 6.11 µM; in test [4] it was 5.87 µM and > 5.3 µM; in test [5], 66.6 µM and > 5.76 µM; in test [6] it was 22 µM and > 7.85 µM. Besides, the TGI in test [7] is 20.3 µM and > 5.61 µM.
For `O=C(COc1ccc(/C=C2\Oc3ccccc3C2=O)cc1)Nc1nc2c(s1)CCCC2`, the GI50 is 11.9 µM in test [1]; 3.98 µM in test [2]; 0.148 µM in test [3]; 0.221 µM in test [4]; 4.44 µM in test [6]. Further, the TGI in test [1] is > 100 µM; in test [2], > 100 µM; in test [3], 0.309 µM; in test [4], 0.609 µM; in test [5], 7.78 µM; in test [6] it was > 49.8 µM.
Turning to `CC[N+]1(C)CCC(O)(c2ccc(Cl)c(Cl)c2)C(C(=O)c2ccc(Cl)c(Cl)c2)C1` (stereo not drawn), the TGI in test [1] was > 10 µM; in test [3] it was 5.98 µM; in test [4], > 10 µM; in test [5], > 10 µM; in test [6], > 10 µM; in test [7], > 10 µM.
`O=C1c2ccccc2-c2c1c1ccccc1c(=O)n2CCN1CCOCC1`: the GI50 is > 100 µM in test [2]; 49.1 µM in test [3]; > 100 µM in test [4]; > 100 µM in test [5]; > 100 µM in test [6]; 14.7 µM in test [7]. Further, the TGI is > 100 µM in test [2]; > 100 µM in test [3]; > 100 µM in test [4]; > 100 µM in test [5]; > 100 µM in test [6]; 38.6 µM in test [7].
For the compound `O=C(NC[C@H](O)CO)c1ccncc1Nc1ccc(I)cc1F`, the GI50 was 0.0913 µM and 0.0707 µM in test [1]; 0.00907 µM and 0.0257 µM in test [2]; > 100 µM in test [3]; > 10 µM and 33.2 µM in test [4]; > 64.1 µM in test [5]; > 10 µM and 23.3 µM in test [6]. For the same compound, the GI50 in test [7] was > 79.9 µM. In addition, the TGI in test [1] is > 71.8 µM; in test [2] it was > 100 µM; in test [3], > 100 µM; in test [4] it was > 100 µM; in test [5], > 100 µM; in test [6] it was > 95 µM. Further, the TGI in test [7] was > 100 µM.
Take `O=C(/C=C/c1ccc([N+](=O)[O-])cc1)c1ccc2c3c(cccc13)CC2`: the GI50 was 29.1 µM in test [1]; 15.8 µM in test [2]; 5.21 µM in test [3]; 4.95 µM in test [4]; 23.6 µM in test [6]; 1.27 µM in test [7]. The TGI was > 100 µM in test [1]; > 63.4 µM in test [2]; > 100 µM in test [3]; 23.8 µM in test [4]; > 30.8 µM in test [5]; > 90.4 µM in test [6]. In test [7], this compound registered a TGI of 11.3 µM.
For the compound `CC1(C)CC(C)(C)C1=NNC(N)=O`, the TGI in test [1], in test [2], in test [3], in test [4], in test [5] and in test [7] was > 100 µM throughout.
For `CC1=C(CO)C(=O)O[C@@H]([C@@H](C)[C@H]2CC[C@H]3[C@@H]4C[C@@H](O)[C@@]5(O)CC=CC(=O)[C@]5(C)[C@H]4CC[C@]23C)C1`, the TGI in test [1] was 49.4 µM; in test [2], > 100 µM; in test [3] it was > 100 µM; in test [4] it was > 100 µM; in test [5] it was > 100 µM; in test [6] it was 93.8 µM. The TGI in test [7] is > 100 µM.
For the compound `N#Cc1c(-c2ccc(Cl)cc2)c2c(n(C3OC(CO)C(O)C(O)C3O)c1=S)CCC2` (stereo not drawn), the TGI in test [1] is 70.6 µM; in test [2], 46.1 µM; in test [3], 56.7 µM; in test [4] it was 76.3 µM; in test [5], 84.3 µM; in test [6] it was 65 µM. The compound also had a TGI in test [7] of 29 µM.

The record behind these values is PubChem BioAssay (NCI).
